Values of other authors as cited in patent US20010041741A1, “Composition for improvement of cellular nutrition and mitochondrial energetics” (priority 1997, published 2001).
Read-outs that look alike come from different tables or passages of the source.

Legend:
[1] = system: animals and patients with heart failure or myocardial ischemia; conditions: L-carnitine 3-5 grams, proprionyl-1-carnitine 1.5-3.0 grams
[2] = system: patients suffering from congestive heart failure; conditions: oral dose of 1 gram three times per day
[3] = system: in-patients with heart failure and on long-term furosemide therapy
[4] = system: patients with heart failure; conditions: creatine supplement
[5] = not given; remark: listed apart in the source

CCC(=O)O[C@H](CC(=O)[O-])C[N+](C)(C)C [proprionyl-1-carnitine, Proprionyl-1-carnitine]
Hemodynamics [1]: significant hemodynamic improvement

NCCS(=O)(=O)O [taurine, 2-aminoethanesulfonic acid]
Hemodynamic state and functional capacity [2]: improve both hemodynamic state and functional capacity | Tolerance [2]: extremely well tolerated

Cc1ncc(C[n+]2csc(CCO)c2C)c(N)n1 [thiamine, Thiamine]
Mean left ventricular ejection fraction ([3]; after one week, 200 mg intravenous thiamine): increased significantly | Increase of left ventricular ejection fraction ([3]; after six weeks of oral thiamine supplementation, 200 mg/day): 22% | Diuresis, excretion of sodium and water ([3]; within two days of thiamine supplementation, versus placebo): significant diuresis with increased excretion of sodium and water

CN(CC(=O)O)C(=N)N [creatine, Creatine]
Cardiac ejection fraction [4]: did not increase | Skeletal muscle creatine phosphate, muscle strength and endurance [4]: significantly increased

C[N+](C)(C)C[C@H](O)CC(=O)[O-] [L-carnitine, 3-hydroxy-4-N-trimethylaminobutyric acid]
Time of peak plasma concentration (following oral administration): 3 h | T½ of plasma decay (following oral administration): 3 to 4 h | Tolerance / adverse effects (in vivo): well tolerated and no adverse effects have been described | Bioavailability (oral): 5-20% | Hemodynamics [1]: significant hemodynamic improvement

COC1=C(OC)C(=O)C(C/C=C(\C)CC/C=C(\C)CC/C=C(\C)CC/C=C(\C)CC/C=C(\C)CC/C=C(\C)CC/C=C(\C)CC/C=C(\C)CC/C=C(\C)CCC=C(C)C)=C(C)C1=O [Ubiquinone, 2,3 dimethoxy-5 methyl-6-decaprenyl benzoquinone]
Increase of mean steady state level in plasma ([5]; after 4 days of dosing at 100 mg 3 times daily): 4-7 fold | Liver enzymes (LDH, SGOT) ([5]; doses of 300 mg/day): asymptomatic elevations | Side effects ([5]; in vivo): virtually absent | T½ of plasma decay ([5]; oral): 34 h | Time of plasma level peak ([5]; oral absorption): 5 to 10 h | Share of an oral dose taken up by the myocardium ([5]; oral, large hepatic first pass effect): 2-5%
